Here are results for 83 compounds from PubChem BioAssay AID488788 (Broad Institute, 2010).

Inconclusive results are not listed. Activity calls are given as the source filed them. How the calls were made is not given here.

The target in this assay is CAAX prenyl protease 2 (Saccharomyces cerevisiae (strain ATCC 204508 / S288c)) (UniProt Q03530). The experiment in a line: Rce1p protease inhibitors, dose response, biochemical, plate reader, cherry-pick (AID 488788). Particulars: Rce1p enzyme activity, at 10 µM (top of the series).
Chain of CAAX prenyl protease 2 (Saccharomyces cerevisiae (strain ATCC 204508 / S288c)) (Q03530 whole entry, looked up): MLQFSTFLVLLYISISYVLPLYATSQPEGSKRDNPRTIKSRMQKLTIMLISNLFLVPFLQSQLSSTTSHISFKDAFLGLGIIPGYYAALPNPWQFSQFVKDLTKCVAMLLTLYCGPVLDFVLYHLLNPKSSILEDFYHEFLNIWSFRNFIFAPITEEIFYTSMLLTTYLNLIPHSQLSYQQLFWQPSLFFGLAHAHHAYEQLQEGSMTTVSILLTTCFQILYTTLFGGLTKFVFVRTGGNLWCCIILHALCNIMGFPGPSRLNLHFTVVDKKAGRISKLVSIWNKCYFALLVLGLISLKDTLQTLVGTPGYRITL

As for `Cc1cc(C)n(-c2nc3ccccc3c(=O)n2OCC(=O)N(C)C)n1`, the “activity change, negative = inhibition” value was “inactive”.

Regarding `CC1=C(C(=O)OCc2ccccc2)C(c2ccc(-c3ccccc3)cc2)NC(=O)N1CCCC(=O)O` (stereo not drawn), the “activity change, negative = inhibition” value was “inactive”.

Turning to `Cn1c(=O)c(C(=O)NCCO)c(O)c2ccccc21`, the “activity change, negative = inhibition” value is “inactive”.

Consider `CCN(CC)CCNC(=O)CSc1c2c(nc3cc(Cl)ccc13)CCCC2`, for which the “activity change, negative = inhibition” value is “inactive”.

Take `COc1ccc(-c2cc(C(F)(F)F)nc(SCC(=O)NCc3cnn(C)c3C)n2)cc1OC`: the “activity change, negative = inhibition” value was “inactive”.

Turning to `Cc1cc(N2CCOCC2)n2cc(-c3ccccc3)nc2n1`, the “activity change, negative = inhibition” value is “inactive”.

For `CCOC(=O)c1ccc(NC(=O)N2CCN(Cc3ccccc3)CC2)cc1`, the “activity change, negative = inhibition” value is “inactive”.

For `CCCCCCCCNC(C)C(O)c1ccc(SC(C)C)cc1` (stereo not drawn), the “activity change, negative = inhibition” value was “inactive”.

As for `O=C(NCCc1c[nH]c2ccccc12)OCCSS(=O)(=O)O`, the “activity change, negative = inhibition” value is “inactive”.

`CCCCn1c(=O)[nH]c(=O)c2c1nc(-c1ccc(OC)c(Br)c1)n2CC(C)C`: the “activity change, negative = inhibition” value is “inactive”.

On to `CC(=O)c1c(C)oc2ccc(NS(=O)(=O)c3ccc(C(=O)O)cc3)cc12`, for which the “activity change, negative = inhibition” value was “inactive”.

For the compound `CCOc1ccccc1CNC(=O)c1cc2occc2n1C`, the “activity change, negative = inhibition” value is “inactive”.

With `O=C(O)c1ccc(Nc2nc3ccc(Cl)cc3[nH]2)cc1`, the “activity change, negative = inhibition” value was “inactive”.

`Cc1c(C)c2ccc(OC(C)C(=O)NCCCN3CCOCC3)c(C)c2oc1=O` (stereo not drawn): the “activity change, negative = inhibition” value was “inactive”.

As to `CN(C)c1ccc(/C=N/NC(=O)C(O)c2ccc(Br)cc2)cc1` (stereo not drawn), the “activity change, negative = inhibition” value is “inactive”.

For `O=C(O)c1ccc(N/N=C/c2ccc(-c3ccccc3Cl)o2)cc1`, the “activity change, negative = inhibition” value was “inactive”.

For `COc1nc(-c2ccccc2)ccc1-c1noc(-c2ccccc2F)n1`, the “activity change, negative = inhibition” value was “inactive”.

For `Cc1cc2cc(C#N)c(NCCNC(=S)NCCCN3CCOCC3)nc2cc1C`, the “activity change, negative = inhibition” value was “inactive”.

For `CC(C)NCC(O)COCCOc1ccc(Br)cc1` (stereo not drawn), the “activity change, negative = inhibition” value was “inactive”.

`CC(C)CC(=O)NC(=S)Nc1ccc(S(=O)(=O)Nc2nccs2)cc1`: the “activity change, negative = inhibition” value is “inactive”.

As to `CC(=O)c1c(C)[nH]c(C(=O)OCc2ccc(Br)cc2)c1C`, the “activity change, negative = inhibition” value was “inactive”.

As to `CCOC(=O)c1cc(C)[nH]c(=O)c1C#N`, the “activity change, negative = inhibition” value is “inactive”.

For the compound `CCN1CCN(CC(O)COc2ccc3c(C)cc(=O)oc3c2)CC1` (stereo not drawn), the “activity change, negative = inhibition” value is “inactive”.

`CCCCNC(=S)NNC(=O)CCn1cc(C)cn1`: the “activity change, negative = inhibition” value is “inactive”.

For `O=C1OCCN1C(=O)[C@H]1[C@H](c2ccc(F)cc2)C(c2ccc(F)cc2)=NN1c1ccc(Br)cc1`, the “activity change, negative = inhibition” value was “inactive”.

In the case of `Cc1ccc(C(=O)c2c3ccc(C(F)(F)F)cc3[n+]([O-])n2CCCC(N)=O)cc1`, the “activity change, negative = inhibition” value is “inactive”.

Regarding `CCOc1ccc(NC(=O)CCSc2ccc(C)cc2)cc1`, the “activity change, negative = inhibition” value was “inactive”.

As to `Cc1cc(Br)ccc1NC(=O)c1cnc(N2CCN(c3ccccn3)CC2)c2ccccc12`, the “activity change, negative = inhibition” value is “inactive”.

Take `O=C(Nc1ccccc1)n1ccc(-c2ccc(-n3ccnc3)cc2)n1`: the “activity change, negative = inhibition” value was “inactive”.

Turning to `NC(=O)[C@@H]1CC2(CC(c3cccc(NC(=O)CC(c4ccccc4)c4ccccc4)c3)=NO2)CN1C(=O)c1ccc(Cl)cc1` (stereo partly drawn), the “activity change, negative = inhibition” value is “inactive”.

On to `CC(C)CNC(=O)Nc1ccc(F)c(Cl)c1`, for which the “activity change, negative = inhibition” value is “inactive”.

Turning to `OC1CCN(C(c2ccc3ncccc3c2)c2nnnn2C2CCCCC2)CC1` (stereo not drawn), the “activity change, negative = inhibition” value is “inactive”.

As for `CN1CCN(C(=S)NC(=O)c2ccccc2Cl)CC1`, the “activity change, negative = inhibition” value is “inactive”.

`Cc1ccc(S(=O)(=O)CC(=O)N2CCN(c3ccccc3F)CC2)cc1`: the “activity change, negative = inhibition” value is “inactive”.

Take `COc1ccc(S(=O)(=O)NCC2CCCO2)cc1NC(=O)c1ccccc1F` (stereo not drawn): the “activity change, negative = inhibition” value is “inactive”.

Turning to `CSc1ccc(C(=O)C2CCCN(C(=O)c3cccnc3SC)C2)cc1` (stereo not drawn), the “activity change, negative = inhibition” value is “inactive”.

On to `Cc1cc(C)n(CC(=O)NC2CCCCC2C)c(=O)c1C#N` (stereo not drawn), for which the “activity change, negative = inhibition” value is “inactive”.

As to `O=C(NCC1CC1)c1ccc(Nc2nc3ccc(Br)cc3[nH]2)cc1`, the “activity change, negative = inhibition” value was “inactive”.

In the case of `Cc1cc(C)cc(N2CC(O)=C(c3nc4ccccc4c(=O)[nH]3)C2=N)c1`, the “activity change, negative = inhibition” value is “inactive”.

On to `CCn1c(COc2cccc(C)c2)nnc1SCC(=O)NC1CCCC1`, for which the “activity change, negative = inhibition” value was “inactive”.

Consider `CSc1ccc(/C=C/C(=O)OCC(=O)NC(C)C)cc1`, for which the “activity change, negative = inhibition” value was “inactive”.

As to `N=C(N)c1ccc(/C=C/c2ccc(C(=N)N)cc2O)cc1`, the “activity change, negative = inhibition” value is “inactive”.

For the compound `COc1ccc(-c2cn3ccccc3n2)cc1[N+](=O)[O-]`, the “activity change, negative = inhibition” value is “inactive”.

On to `CCOCc1cc(C)[nH]c(=O)c1C#N`, for which the “activity change, negative = inhibition” value is “inactive”.

Take `CC(=O)N1c2ccc([N+](=O)[O-])cc2NC(=O)CC1C` (stereo not drawn): the “activity change, negative = inhibition” value is “inactive”.

For `C=CCc1cccc(/C=N/NC(=O)COc2ccc(-n3cnnn3)cc2)c1O`, the “activity change, negative = inhibition” value is “inactive”.

In the case of `CC(C)[C@H](NC(=O)OCc1ccccc1)C(=O)OCC(=O)Nc1c(F)cccc1F`, the “activity change, negative = inhibition” value was “inactive”.

As for `CC(=O)OCC(=O)[C@@]12OC3(CCCC3)O[C@@H]1C[C@H]1[C@@H]3CCC4=CC(=O)C=C[C@]4(C)[C@@]3(F)[C@@H](O)C[C@@]12C`, the “activity change, negative = inhibition” value is “inactive”.

As to `CCOc1cc(CNC2CCCC2)ccc1OCc1ccccc1Cl`, the “activity change, negative = inhibition” value was “inactive”.

For `Cc1ccc(S(=O)(=O)c2cn(C)c3cc(N4CCOCC4)c(F)cc3c2=O)cc1`, the “activity change, negative = inhibition” value is “inactive”.

Turning to `Nc1nc2c(ncn2COC(CO)CO)c(=O)[nH]1`, the “activity change, negative = inhibition” value was “inactive”.

Take `COC(C/C=C/C(=O)[C@H](C)OCc1ccccc1)OC`: the “activity change, negative = inhibition” value was “inactive”.

With `COc1ccc(C)cc1NC(=O)CN1C(=O)COc2ccc(S(=O)(=O)N3CCOCC3)cc21`, the “activity change, negative = inhibition” value is “inactive”.

Turning to `Nc1ccccc1Oc1ccc2ccccc2c1`, the “activity change, negative = inhibition” value was “inactive”.

Regarding `Cc1ccnc(-n2c(-c3ccco3)nc3ccccc3c2=O)c1`, the “activity change, negative = inhibition” value is “inactive”.

With `CCOc1c2ccc(C(=O)NCc3ccco3)cc2nn1CCOC`, the “activity change, negative = inhibition” value is “inactive”.

As to `O=C(O)c1ccc2cccc(Cl)c2c1O`, the “activity change, negative = inhibition” value is “inactive”.

On to `CCCCn1c(=O)c(-c2ccccc2)c(O)c2ccccc21`, for which the “activity change, negative = inhibition” value is “inactive”.

With `Cc1nc(N2CCOCC2)c2cc(-c3ccccc3)sc2n1`, the “activity change, negative = inhibition” value is “inactive”.

With `COc1ccc(C)c2sc(NC(=O)C3=COCCO3)nc12`, the “activity change, negative = inhibition” value was “inactive”.

For `COc1cc(-c2nc3ccccn3c2/N=C/c2cccc(OC)c2O)ccc1O`, the “activity change, negative = inhibition” value was “inactive”.

For `Cc1ccc(S(=O)(=O)Oc2ccc(C3C4=C(CCCC4=O)N(CCC(=O)O)C4=C3C(=O)CCC4)cc2Cl)cc1`, the “activity change, negative = inhibition” value was “inactive”.

On to `Cc1nccc2c1[nH]c1ccccc12`, for which the “activity change, negative = inhibition” value was “inactive”.

Turning to `COc1cc(OC)cc(-c2ncc3ccccn23)c1`, the “activity change, negative = inhibition” value was “inactive”.

Take `Cn1c(CN2CCOCC2)c(C#N)c2ccccc21`: the “activity change, negative = inhibition” value is “inactive”.

Turning to `O=C(COc1ccccc1)Nc1cccc(-c2nc3cc4ccccc4cc3[nH]2)c1`, the “activity change, negative = inhibition” value was “inactive”.

As for `O=S(=O)(CC(CN1CCOCC1)N1CCOCC1)c1ccccc1` (stereo not drawn), the “activity change, negative = inhibition” value is “inactive”.

For the compound `C#CCNC(=O)C1=C[C@@H](C2CCCCC2)C[C@@H](OCc2ccc(CO)cc2)O1`, the “activity change, negative = inhibition” value is “inactive”.

As for `Cc1nc(SC(C(=O)c2ccccc2)c2ccccc2)nc2ccccc12` (stereo not drawn), the “activity change, negative = inhibition” value was “inactive”.

Turning to `CN1CC(C(=O)c2ccc(Cl)cc2)C(c2ccc(Cl)cc2Cl)C1` (stereo not drawn), the “activity change, negative = inhibition” value is “inactive”.

With `O=C1CN(C(=O)NCC(=O)N2CCCC2)c2ccccc2N1`, the “activity change, negative = inhibition” value was “inactive”.

`COCCCNC(=S)NCCNc1nc2cc(C)cc(C)c2cc1C#N`: the “activity change, negative = inhibition” value was “inactive”.

With `CCN(C(=O)COC(=O)c1cc(-c2cccs2)nc2ccccc12)C1CCS(=O)(=O)C1` (stereo not drawn), the “activity change, negative = inhibition” value was “inactive”.

Consider `Cc1ccc(C(=O)c2c3ccccc3[n+]([O-])n2CCO)cc1`, for which the “activity change, negative = inhibition” value is “inactive”.

In the case of `CCCCNC(=O)c1cc2c(=O)n3cccc(C)c3nc2n(Cc2ccccc2)c1=N`, the “activity change, negative = inhibition” value was “inactive”.

As for `CCn1c(C)nc2c(=O)oc3ccccc3c21`, the “activity change, negative = inhibition” value was “inactive”.

For `O=C(C1CCC(=O)N(C2CC2)C1)N1CCN(c2ccccc2Cl)CC1` (stereo not drawn), the “activity change, negative = inhibition” value is “inactive”.

Take `CC(C)c1ccc(NC(=O)COc2nncc3ccccc23)cc1`: the “activity change, negative = inhibition” value was “inactive”.

As for `COc1ccc(OC)c(NC(=O)c2cc3oc4ccccc4c3cc2O)c1`, the “activity change, negative = inhibition” value was “inactive”.

With `Cc1cc(NS(=O)(=O)c2ccccc2)c([N+](=O)[O-])cc1C`, the “activity change, negative = inhibition” value is “inactive”.

`O=S(=O)(c1ccccc1)c1cnn2c(C(F)(F)F)cc(-c3ccc(F)cc3)nc12`: the “activity change, negative = inhibition” value is “inactive”.

On to `COc1ccc2c(c1)cc(C(=O)N[C@@H](CCSC)C(=O)N1CCC(C(=O)O)CC1)n2C`, for which the “activity change, negative = inhibition” value is “inactive”.

Take `O=C(O)CCCC[C@@H]1SC[C@@H]2NC(=O)N[C@@H]21`: the “activity change, negative = inhibition” value is “inactive”.
